Results reported in patent US20080207705A1, “Heteroaryl-Imidazole Derivatives as Cannabinoid CB1 Receptor Antagonists” (Green Cross Corporation, priority 2007, published 2008).
Read-outs that look alike come from different tables or passages of the source.

Molecular target: T1, rat CB-1 receptor (Rattus norvegicus, UniProt P20272)
T1 construct: The tissue obtained from the brain of SD rats was homogenized; from tissue; host or cells: brain of SD rats (membrane pellet of homogenate)
Experiment: rat CB-1 receptor binding protocol with [3H]CP-55940

[1] = [3H]CP-55940, brain tissue of SD rats, 30 °C for 60 min, read-out: IC50

T1 sequence (P20272 whole entry): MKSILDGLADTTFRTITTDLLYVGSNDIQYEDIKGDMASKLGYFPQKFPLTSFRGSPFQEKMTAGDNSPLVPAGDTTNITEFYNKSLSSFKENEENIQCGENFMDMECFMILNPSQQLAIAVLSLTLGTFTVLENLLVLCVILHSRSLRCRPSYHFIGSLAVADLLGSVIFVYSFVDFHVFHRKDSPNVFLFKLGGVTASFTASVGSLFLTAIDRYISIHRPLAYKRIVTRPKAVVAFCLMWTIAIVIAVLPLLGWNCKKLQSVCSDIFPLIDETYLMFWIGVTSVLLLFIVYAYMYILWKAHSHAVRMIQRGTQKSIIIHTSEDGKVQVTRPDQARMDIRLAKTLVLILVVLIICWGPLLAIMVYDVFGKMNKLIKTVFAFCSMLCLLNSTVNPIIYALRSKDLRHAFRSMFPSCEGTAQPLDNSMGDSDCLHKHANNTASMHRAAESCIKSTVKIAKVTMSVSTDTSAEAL

Row | SMILES | IC50 [1] | IC50
1 | Cc1c(-c2ncc(C(C)(C)C)o2)nc(-c2ccc(Cl)cc2Cl)n1-c1ccc(Br)cc1 [Example 187, 2-(1-(4-Bromophenyl)-2-(2,4-dichlorophenyl)-5-methyl-1H-imidazol-4-yl)-5-tert-butyloxazole] | 16.9 nM | –
2 | CCc1c(-c2nnc(C3(C(F)(F)F)CCC3)s2)nc(-c2ccccc2Cl)n1-c1ccc(Br)cc1 [Example 147, 2-(1-(4-Bromophenyl)-2-(2-chlorophenyl)-5-ethyl-1H-imidazol-4-yl)-5-(1-(trifluoromethyl)cyclobutyl)-1,3,4-thiadiazole] | – | 5.33 nM
3 | CCCc1c(-c2nnc(C(C)(C)C)o2)nc(-c2ccc(Cl)cc2Cl)n1-c1ccc(Br)cc1 [Example 29, 2-(1-(4-Bromophenyl)-2-(2,4-dichlorophenyl)-5-propyl-1H-imidazol-4-yl)-5-tert-butyl-1,3,4-oxadiazole] | 71.5 nM | –
4 | CCCc1c(-c2nnc(C3(c4ccc(Cl)cc4)CC3)o2)nc(-c2ccc(Cl)cc2Cl)n1-c1ccc(Br)cc1 [Example 33, 2-(1-(4-Bromophenyl)-2-(2,4-dichlorophenyl)-5-propyl-1H-imidazol-4-yl)-5-(1-(4-chlorophenyl)cyclopropyl)-1,3,4-oxadiazole] | 19.2 nM | –
5 | CCCc1c(-c2nnc(C3CCCCC3)o2)nc(-c2ccc(Cl)cc2Cl)n1-c1ccc(Cl)cc1 [Example 39, 2-(1-(4-Chlorophenyl)-2-(2,4-dichlorophenyl)-5-propyl-1H-imidazol-4-yl)-5-cyclohexyl-1,3,4-oxadiazole] | 86.9 nM | –
6 | CCCc1c(-c2nnc(C3(c4ccccc4)CC3)o2)nc(-c2ccc(Cl)cc2Cl)n1-c1ccc(Br)cc1 [Example 31, 2-(1-(4-Bromophenyl)-2-(2,4-dichlorophenyl)-5-propyl-1H-imidazol-4-yl)-5-(1-phenylcyclopropyl)-1,3,4-oxadiazole] | 46.1 nM | –
7 | CCc1c(-c2nnc(C3CCCCC3)o2)nc(-c2ccc(Cl)cc2Cl)n1-c1ccc(Cl)cc1 [Example 12, 2-(1-(4-Chlorophenyl)-2-(2,4-dichlorophenyl)-5-ethyl-1H-imidazol-4-yl)-5-cyclohexyl-1,3,4-oxadiazole] | 48.4 nM | –
8 | CCCC(C)c1nnc(-c2nc(-c3ccc(Cl)cc3Cl)n(-c3ccc(Cl)cc3)c2C)o1 (centres unmarked) [Example 7, 2-(1-(4-Chlorophenyl)-2-(2,4-dichlorophenyl)-5-methyl-1H-imidazol-4-yl)-5-(pentan-2-yl)-1,3,4-oxadiazole] | – | 14.2 nM
9 | CCCCc1cnc(-c2nc(-c3ccc(Cl)cc3Cl)n(-c3ccc(Cl)cc3)c2C)s1 [Example 195, 5-Butyl-2-(1-(4-chlorophenyl)-2-(2,4-dichlorophenyl)-5-methyl-1H-imidazol-4-yl)thiazole] | 63.3 nM | –
10 | CCCc1c(-c2nnc(C3CCC3)o2)nc(-c2ccc(Cl)cc2Cl)n1-c1ccc(Cl)cc1 [Example 36, 2-(1-(4-Chlorophenyl)-2-(2,4-dichlorophenyl)-5-propyl-1H-imidazol-4-yl)-5-cyclobutyl-1,3,4-oxadiazole] | 60.1 nM | –
11 | CCc1c(-c2nnc(C(C)(C)C)o2)nc(-c2ccc(Cl)cc2Cl)n1-c1ccc(Cl)cc1 [Example 15, 2-tert-butyl-5-(1-(4-chlorophenyl)-2-(2,4-dichlorophenyl)-5-ethyl-1H-imidazol-4-yl)-1,3,4-oxadiazole] | – | 18.1 nM
12 | Cc1c(-c2nnc(C3(C(F)(F)F)CCC3)o2)nc(-c2ccc(Cl)cc2Cl)n1-c1ccc(Br)cc1 [Example 47, 2-(1-(4-Bromophenyl)-2-(2,4-dichlorophenyl)-5-methyl-1H-imidazol-4-yl)-5-(1-(trifluoromethyl)cyclobutyl)-1,3,4-oxadiazole] | 27.6 nM | –
13 | Cc1c(-c2nnc(C3CCC3)o2)nc(-c2ccc(Cl)cc2Cl)n1-c1ccc(Br)cc1 [Example 22, 2-(1-(4-Bromophenyl)-2-(2,4-dichlorophenyl)-5-methyl-1H-imidazol-4-yl)-5-cyclobutyl-1,3,4-oxadiazole] | – | 29.3 nM
14 | CCC(CC)c1nnc(-c2nc(-c3ccc(Cl)cc3Cl)n(-c3ccc(Cl)cc3)c2C)s1 [Example 99, 2-(1-(4-Chlorophenyl)-2-(2,4-dichlorophenyl)-5-methyl-1H-imidazol-4-yl)-5-(pentan-3-yl)-1,3,4-thiadiazole] | 19.7 nM | –
15 | Cc1c(-c2nnc(C3CCC3)s2)nc(-c2ccc(Cl)cc2Cl)n1-c1ccc(Cl)cc1 [Example 93, 2-(1-(4-Chlorophenyl)-2-(2,4-dichlorophenyl)-5-methyl-1H-imidazol-4-yl)-5-cyclobutyl-1,3,4-thiadiazole] | 42.3 nM | –
16 | Cc1c(-c2nnc(C3CCCC3)o2)nc(-c2ccc(Cl)cc2Cl)n1-c1ccc(Cl)cc1 [Example 3, 2-(1-(4-Chlorophenyl)-2-(2,4-dichlorophenyl)-5-methyl-1H-imidazol-4-yl)-5-cyclopentyl-1,3,4-oxadiazole] | – | 35.3 nM

Continued by falling IC50 [1], values first:

Row | IC50 [1] | SMILES | IC50
17 | 16 nM | Cc1c(-c2ncc(C(C)C)s2)nc(-c2ccc(Cl)cc2Cl)n1-c1ccc(Cl)cc1 [Example 196, 2-(1-(4-Chlorophenyl)-2-(2,4-dichlorophenyl)-5-methyl-1H-imidazol-4-yl)-5-isopropylthiazole] | –
18 | 14.7 nM | CCc1c(-c2nnc(C(C)(C)C)o2)nc(-c2ccccc2Cl)n1-c1ccc(Br)cc1 [Example 55, 2-(1-(4-Bromophenyl)-2-(2-chlorophenyl)-5-ethyl-1H-imidazol-4-yl)-5-tert-butyl-1,3,4-oxadiazole] | –
19 | 13.6 nM | CCc1c(-c2nnc(C3(c4ccc(Cl)cc4)CCC3)o2)nc(-c2ccc(Cl)cc2Cl)n1-c1ccc(Br)cc1 [Example 41, 2-(1-(4-Bromophenyl)-2-(2,4-dichlorophenyl)-5-ethyl-1H-imidazol-4-yl)-5-(1-(4-chlorophenyl)cyclobutyl)-1,3,4-oxadiazole] | –
20 | 13.5 nM | CCCc1c(-c2nnc(C3CCC3)s2)nc(-c2ccc(Cl)cc2Cl)n1-c1ccc(Cl)cc1 [Example 126, 2-(1-(4-Chlorophenyl)-2-(2,4-dichlorophenyl)-5-propyl-1H-imidazol-4-yl)-5-cyclobutyl-1,3,4-thiadiazole] | –
21 | 12 nM | CC(C)(C)c1nnc(-c2nc(-c3ccc(Cl)cc3Cl)n(-c3ccc(Cl)cc3)c2Cn2cncn2)o1 [Example 87, 2-(5-((1H-1,2,4-Triazol-1-yl)methyl)-1-(4-chlorophenyl)-2-(2,4-dichlorophenyl)-1H-imidazol-4-yl)-5-tert-butyl-1,3,4-oxadiazole] | –
22 | 11.6 nM | CCCCc1cnc(-c2nc(-c3ccc(Cl)cc3Cl)n(-c3ccc(Cl)cc3)c2C)o1 [Example 182, 5-Butyl-2-(1-(4-chlorophenyl)-2-(2,4-dichlorophenyl)-5-methyl-1H-imidazol-4-yl)oxazole] | –
23 | 11.5 nM | CCc1c(-c2nnc(C3(C(F)(F)F)CC3)s2)nc(-c2ccccc2Cl)n1-c1ccc(Br)cc1 [Example 146, 2-(1-(4-Bromophenyl)-2-(2-chlorophenyl)-5-ethyl-1H-imidazol-4-yl)-5-(1-(trifluoromethyl)cyclopropyl)-1,3,4-thiadiazole] | –
24 | 8.05 nM | CCCCC(C)c1nnc(-c2nc(-c3ccc(Cl)cc3Cl)n(-c3ccc(Cl)cc3)c2CC)s1 (centres unmarked) [Example 105, 2-(1-(4-Chlorophenyl)-2-(2,4-dichlorophenyl)-5-ethyl-1H-imidazol-4-yl)-5-(hexan-2-yl)-1,3,4-thiadiazole] | –
25 | 6.91 nM | FC(F)(F)C1(c2nnc(-c3nc(-c4ccccc4Cl)n(-c4ccc(Br)cc4)c3Cn3cncn3)o2)CC1 [Example 79, 2-(5-((1H-1,2,4-Triazol-1-yl)methyl)-1-(4-bromophenyl)-2-(2-chlorophenyl)-1H-imidazol-4-yl)-5-(1-(trifluoromethyl)cyclopropyl)-1,3,4-oxadiazole] | –
26 | 5.72 nM | CCc1c(-c2nnc(C3(c4ccc(C)cc4)CC3)s2)nc(-c2ccc(Cl)cc2Cl)n1-c1ccc(Br)cc1 [Example 133, 2-(1-(4-Bromophenyl)-2-(2,4-dichlorophenyl)-5-ethyl-1H-imidazol-4-yl)-5-(1-p-tolylcyclopropyl)-1,3,4-thiadiazole] | –
27 | 3.91 nM | Clc1ccc(C2(c3nnc(-c4nc(-c5ccc(Cl)cc5Cl)n(-c5ccc(Br)cc5)c4Cn4cncn4)s3)CC2)cc1 [Example 167, 2-(5-((1H-1,2,4-Triazol-1-yl)methyl)-1-(4-bromophenyl)-2-(2,4-dichlorophenyl)-1H-imidazol-4-yl)-5-(1-(4-chlorophenyl)cyclopropyl)-1,3,4-thiadiazole] | –
28 | 3.45 nM | Cc1c(-c2nnc(C(C)(C)C)s2)nc(-c2ccc(Cl)cc2Cl)n1-c1ccc(Br)cc1 [Example 109, 2-(1-(4-Bromophenyl)-2-(2,4-dichlorophenyl)-5-methyl-1H-imidazol-4-yl)-5-tert-butyl-1,3,4-thiadiazole] | –
29 | 2.18 nM | Cc1c(-c2nnc(C3(c4ccc(Cl)cc4)CC3)s2)nc(-c2ccccc2Cl)n1-c1ccc(Br)cc1 [Example 144, 2-(1-(4-Bromophenyl)-2-(2-chlorophenyl)-5-methyl-1H-imidazol-4-yl)-5-(1-(4-chlorophenyl)cyclopropyl)-1,3,4-thiadiazole] | –
30 | 1.8 nM | Clc1ccc(C2(c3nnc(-c4nc(-c5ccccc5Cl)n(-c5ccc(Br)cc5)c4Cn4cncn4)s3)CC2)cc1 [Example 171, 2-(5-((1H-1,2,4-Triazol-1-yl)methyl)-1-(4-bromophenyl)-2-(2-chlorophenyl)-1H-imidazol-4-yl)-5-(1-(4-chlorophenyl)cyclopropyl)-1,3,4-thiadiazole] | –
31 | 1.75 nM | FC(F)(F)C1(c2nnc(-c3nc(-c4ccccc4Cl)n(-c4ccc(Br)cc4)c3Cn3cncn3)s2)CCC1 [Example 170, 2-(5-((1H-1,2,4-Triazol-1-yl)methyl)-1-(4-bromophenyl)-2-(2-chlorophenyl)-1H-imidazol-4-yl)-5-(1-(trifluoromethyl)cyclobutyl)-1,3,4-thiadiazole] | –
32 | 1.53 nM | Clc1ccc(-n2c(-c3ccc(Cl)cc3Cl)nc(-c3nnc(C4(c5ccc(Cl)cc5)CC4)o3)c2Cn2cncn2)cc1 [Example 88, 2-(5-((1H-1,2,4-Triazol-1-yl)methyl)-1-(4-chlorophenyl)-2-(2,4-dichlorophenyl)-1H-imidazol-4-yl)-5-(1-(4-chlorophenyl)cyclopropyl)-1,3,4-oxadiazole] | –
